ChEMBL document CHEMBL5042525, “Activation of E6AP/UBE3A-Mediated Protein Ubiquitination and Degradation Pathways by a Cyclic γ-AA Peptide” (J Med Chem, 2022)
The source made the active and inactive calls. No cut-off for these calls is given here.

Tests used:
HEK293T [1] = experiment: Activation of E6AP mediated UbxD8 degradation in HEK293T cells at 50 uM preincubated for 14 hrs followed by CHX addition by cycloheximide chase assay; assay type: cell-based; conditions: Homo sapiens, filed as activator
Homo sapiens [2] = species on record: Homo sapiens; experiment: Activation of wild type N-terminal Flag-tagged E6AP (unknown origin) mediated beta-catenin substrate ubiquitination in presence of Uba1/Ubch7 preincubated for 30 mins followed by UB addition incubated for 2 hrs by SDS PAGE based Western blot analysis; conditions: filed as activator, dose 1-100 µM, time 150.0 min
Homo sapiens [3] = species on record: Homo sapiens; experiment: Activation of wild type N-terminal Flag-tagged E6AP (unknown origin) mediated UbxD8 substrate ubiquitination in presence of Uba1/Ubch7 preincubated for 30 mins followed by UB addition incubated for 2 hrs by SDS PAGE based Western blot analysis; conditions: filed as activator, time 2.5 hrs
HEK293T [4] = experiment: Activation of E6AP (unknown origin) in HEK293T cells assessed as increase in ubiquitination level of UbxD8 substrate at 25 to 50 uM preincubated for 14 hrs followed by addition of MG132 incubated for 12 hrs by SDS PAGE based Western blot analysis; assay type: cell-based; conditions: Homo sapiens, filed as activator, dose 25-50 µM, time 26.0 hrs
Homo sapiens [5] = species on record: Homo sapiens; experiment: (§1) Activation of wild type N-terminal Flag-tagged E6AP HECT domain (unknown origin) self-ubiquitination in presence of wild type HA-tagged UB at 5 uM preincubated for 30 mins followed by UB addition incubated for 2 hrs by SDS PAGE based Western blot analysis; conditions: filed as activator, time 150.0 min
Homo sapiens [6] = species on record: Homo sapiens; experiment: Activation of wild type N-terminal Flag-tagged E6AP (unknown origin) mediated HHR23A substrate ubiquitination in presence of Uba1/Ubch7 preincubated for 30 mins followed by UB addition incubated for 2 hrs by SDS PAGE based Western blot analysis; conditions: filed as activator, dose 1-100 µM, time 150.0 min
Homo sapiens [7] = species on record: Homo sapiens; experiment: Activation of wild type N-terminal Flag-tagged E6AP (unknown origin) mediated UbxD8 substrate ubiquitination in presence of Uba1/Ubch7 at 10 to 100 uM preincubated for 30 mins followed by UB addition incubated for 2 hrs by SDS PAGE based Western blot analysis; conditions: dose 10-100 µM, time 2.5 hrs
Homo sapiens [8] = species on record: Homo sapiens; experiment: Activation of wild type N-terminal Flag-tagged E6AP (unknown origin) mediated ubiquitination of p53 substrate at 10 to 100 uM in presence of […] E6 and Uba1/Ubch7 preincubated for 30 min followed by UB addition incubated for 2 hrs by SDS PAGE based Western blot analysis; conditions: dose 10-100 µM, time 150.0 min
Homo sapiens [9] = species on record: Homo sapiens; experiment: Activation of full length E6AP (unknown origin) self-ubiquitination at 100 uM preincubated for 30 mins followed by UB addition incubated for 2 hrs by SDS PAGE based Western blot analysis
Homo sapiens [10] = species on record: Homo sapiens; experiment: Activation of E6AP (unknown origin) self-ubiquination in presence of UbcH7 at 5 uM preincubated for 30 mins followed by UB addition incubated for 2 hrs by SDS PAGE based Western blot analysis; conditions: filed as activator, time 2.5 hrs
Homo sapiens [11] = species on record: Homo sapiens; experiment: Activation of E6AP (unknown origin) self-ubiquination in presence of Uba1 at 5 uM preincubated for 30 mins followed by UB addition incubated for 2 hrs by SDS PAGE based Western blot analysis; conditions: filed as activator, time 2.5 hrs
[12] = Stability of the compound in human serum for 24 hrs by HPLC-MS analysis; assay type: ADME, cell-free
Homo sapiens [13] = species on record: Homo sapiens; experiment: Activation of wild type N-terminal Flag-tagged E6AP HECT domain (unknown origin) self-ubiquitination in presence of UbcH7 at 5 uM preincubated for 30 mins followed by UB addition incubated for 2 hrs by SDS PAGE based Western blot analysis; conditions: filed as activator, time 2.5 hrs
[14] = Binding affinity to recombinant E6AP HECT domain (unknown origin) expressed in BL21 cells by fluorescence polarization assay; parameters: species or system Homo sapiens
[15] = Stability of the compound in ammonium bicarbonate buffer at pH 7.8 assessed as pronase (unknown origin)-mediated drug degradation for 24 hrs by HPLC-MS analysis; assay type: ADME; conditions: human, pH 7.8, 24 h
Homo sapiens [16] = species on record: Homo sapiens; experiment: as §1, with “self-ubiquitination assessed as increase in formation of polyubiquitinated HECT” for “self-ubiquitination”, “10 to 100” for “5”; conditions: dose 10-100 µM, time 150.0 min
Homo sapiens [17] = species on record: Homo sapiens; experiment: Activation of E6AP (unknown origin) self-ubiquination in presence of wild type HA-tagged UB at 5 uM preincubated for 30 mins followed by UB addition incubated for 2 hrs by SDS PAGE based Western blot analysis; conditions: filed as activator, time 150.0 min
HEK293T [18] = experiment: Activation of E6AP (unknown origin) mediated HHR23A substrate ubiquitination in HEK293T cells at 25 to 50 uM preincubated for 14 hrs followed by addition of MG132 incubated for 12 hrs by SDS PAGE based Western blot analysis; assay type: cell-based; conditions: Homo sapiens, filed as activator, dose 25-50 µM, time 26.0 hrs
HEK293T [19] = experiment: Activation of E6AP mediated HHR23A degradation in HEK293T cells at 1 to 5 uM preincubated for 14 hrs followed by CHX addition by cycloheximide chase assay; assay type: cell-based; conditions: Homo sapiens, filed as activator, dose 1-5 µM
Homo sapiens [20] = species on record: Homo sapiens; experiment: Activation of wild type N-terminal Flag-tagged E6AP HECT domain (unknown origin) self-ubiquitination in presence of Uba1 at 5 uM preincubated for 30 mins followed by UB addition incubated for 2 hrs by SDS PAGE based Western blot analysis; conditions: filed as activator, time 2.5 hrs
HEK293T [21] = experiment: Activation of E6AP mediated HHR23A degradation in HEK293T cells at 50 uM preincubated for 14 hrs followed by CHX addition by cycloheximide chase assay; assay type: cell-based; conditions: Homo sapiens, filed as activator

What does the source list for `COc1cc(CC(=O)N2CC(=O)N[C@@H](Cc3ccccc3)CN(C(=O)CC3CC3)CC(=O)N[C@@H](CC(C)C)CN(CC(N)=O)C(=O)CCSCc3ccc(cc3)C(=O)N[C@@H](CCCCN)CN(C(=O)Cc3ccc4ccccc4c3)CC(=O)N[C@@H](CC(C)C)C2)cc(OC)c1`?
Activity (HEK293T [1]): Active; Activity (Homo sapiens [2]): Dose-Dependent Effect; Activity (Homo sapiens [3]): Dose-Dependent Effect; Activity (HEK293T [4]): Active; Activity (Homo sapiens [5]): Active; Activity (Homo sapiens [6]): Dose-Dependent Effect; Activity (Homo sapiens [7]; filed as activator): Active; Activity (Homo sapiens [8]): inactive; Activity (Homo sapiens [9]; filed as activator): Active; Activity (Homo sapiens [10]): Active; Activity (Homo sapiens [11]): Active; Stability [12]: Stable; Activity (Homo sapiens [13]): Active; Kd ([14]; read-out: Kd): 218 nM; Stability [15]: Stable; Activity (Homo sapiens [16]; filed as activator): Active; Activity (Homo sapiens [17]): Active; Activity (HEK293T [18]): Active; Activity (HEK293T [19]): Active; Activity (Homo sapiens [20]): Active; Activity (HEK293T [21]): Active

Which Activity (Homo sapiens [7]) does the source give for `CC(C)C[C@H]1CN(CC(N)=O)C(=O)CCSCc2ccc(cc2)C(=O)N[C@@H](Cc2ccccc2)CN(C(=O)Cc2ccc3ccccc3c2)CC(=O)N[C@@H](CC(C)C)CN(C(=O)CCC2CCCCC2)CC(=O)N[C@@H](Cc2ccccc2)CN(C(=O)Cc2ccc3c(c2)OCO3)CC(=O)N1` here?
The Activity was “inactive”.

And the Activity (Homo sapiens [8])?
Its Activity is “inactive”.

And the Activity (Homo sapiens [9])?
The Activity was “inactive”.

What about the Kd ([14]; read-out: Kd) of the same compound?
Its Kd is 82.2 nM.

What about the Activity (Homo sapiens [16]) of the same compound?
Its Activity is “inactive”.

Which Activity (Homo sapiens [7]) does the source give for `COc1cc(CC(=O)N2CC(=O)N[C@@H](C)CN(C(=O)Cc3cc(OC)cc(OC)c3)CC(=O)N[C@@H](CC(C)C)CN(CC(N)=O)C(=O)CCSCc3ccc(cc3)C(=O)N[C@@H](Cc3ccccc3)CN(C(=O)Cc3ccc4c(c3)OCO4)CC(=O)N[C@@H](Cc3ccccc3)C2)cc(OC)c1` here?
The Activity was “inactive”.

And the Activity (Homo sapiens [8])?
Its Activity is “inactive”.

What about the Activity (Homo sapiens [9]) of the same compound?
Its Activity is “inactive”.

And the Kd ([14]; read-out: Kd)?
The Kd was 83.4 nM.

What about the Activity (Homo sapiens [16]) of the same compound?
The Activity was “inactive”.

Which Activity (Homo sapiens [7]) does the source give for `C[C@H]1CN(C(=O)Cc2ccc3c(c2)OCO3)CC(=O)N[C@@H](Cc2ccccc2)CN(C(=O)Cc2ccc3ccccc3c2)CC(=O)N[C@@H](CCC(=O)O)CN(C(=O)CC2CC2)CC(=O)N[C@@H](Cc2ccccc2)CN(CC(N)=O)C(=O)CCSCc2ccc(cc2)C(=O)N1` here?
Its Activity is “inactive”.

What about the Activity (Homo sapiens [8]) of the same compound?
The Activity was “inactive”.

And the Activity (Homo sapiens [9])?
The Activity was “inactive”.

And the Kd ([14]; read-out: Kd)?
The Kd was 171 nM.

And the Activity (Homo sapiens [16])?
The Activity was “inactive”.

For `COc1cc(CC(=O)N2CC(=O)N[C@@H](Cc3ccccc3)CN(C(=O)CC3CC3)CC(=O)N[C@@H](CC(C)C)CN(CC(N)=O)C(=O)CCSCc3ccc(cc3)C(=O)N[C@@H](CCC(=O)O)CN(C(=O)Cc3ccc4c(c3)OCO4)CC(=O)N[C@@H](CC(C)C)C2)cc(OC)c1`, which Activity (Homo sapiens [7]) is on record?
Its Activity is “inactive”.

What about the Activity (Homo sapiens [8]) of the same compound?
Its Activity is “inactive”.

And the Activity (Homo sapiens [9])?
Its Activity is “inactive”.

And the Kd ([14]; read-out: Kd)?
Its Kd is 162 nM.

And the Activity (Homo sapiens [16])?
The Activity was “inactive”.

For `CC(C)C[C@H]1CN(CC(N)=O)C(=O)CCSCc2ccc(cc2)C(=O)N[C@@H](C)CN(C(=O)Cc2ccc3ccccc3c2)CC(=O)N[C@@H](CC(C)C)CN(C(=O)CCc2ccccc2)CC(=O)N[C@@H](Cc2ccccc2)CN(C(=O)Cc2ccc3c(c2)OCO3)CC(=O)N1`, which Activity (Homo sapiens [7]) is on record?
The Activity was “inactive”.

And the Activity (Homo sapiens [8])?
The Activity was “inactive”.

What about the Activity (Homo sapiens [9]) of the same compound?
Its Activity is “inactive”.

What about the Kd ([14]; read-out: Kd) of the same compound?
The Kd was 187 nM.

What about the Activity (Homo sapiens [16]) of the same compound?
Its Activity is “inactive”.

Which results are given for `CC(C)C[C@H]1CN(C(=O)Cc2ccc3c(c2)OCO3)CC(=O)N[C@@H](CCC(=O)O)CN(C(=O)CCC2CCCCC2)CC(=O)N[C@@H](C)CN(C(=O)CCC(=O)O)CC(=O)N[C@@H](Cc2ccccc2)CN(CC(N)=O)C(=O)CCSCc2ccc(cc2)C(=O)N1`?
Activity (Homo sapiens [7]): inactive; Activity (Homo sapiens [8]): inactive; Activity (Homo sapiens [9]): inactive; Kd [14]: Not Active; Activity (Homo sapiens [16]): inactive

Which Activity (Homo sapiens [7]) does the source give for `C[C@H]1CN(C(=O)CCC(=O)O)CC(=O)N[C@@H](Cc2ccccc2)CN(CC(N)=O)C(=O)CCSCc2ccc(cc2)C(=O)N[C@@H](C)CN(C(=O)Cc2ccc3c(c2)OCO3)CC(=O)N[C@@H](CCC(=O)O)CN(C(=O)CC2CC2)CC(=O)N1` here?
The Activity was “inactive”.

What about the Activity (Homo sapiens [8]) of the same compound?
The Activity was “inactive”.

And the Activity (Homo sapiens [9])?
Its Activity is “inactive”.

What about the Kd [14] of the same compound?
Its Kd is “Not Active”.

What about the Activity (Homo sapiens [16]) of the same compound?
Its Activity is “inactive”.
